Test results from article PMC5748279, “Novel Antitubercular 6-Dialkylaminopyrimidine Carboxamides from Phenotypic Whole-Cell High Throughput Screening of a SoftFocus Library: Structure–Activity Relationship and Target Identification Studies” (Journal of Medicinal Chemistry, 2017).
In brackets after ≈: the same amount, converted by molar mass. Several values for one entry are separate records, joined by “and”; a condition that tells them apart may be missing. Equal values may be shown once.

Key:
[1] = physchem; format: physicochemical
Protocol: The kinetic solubility assay was performed using a miniaturised shake flask method. 10 mM stock […]
DMSO, and to spike (1:50) duplicate aqueous samples of FaSSIF (simulating fasting state biorelevant media, pH 6.5), with a final DMSO concentration of 2%. After shaking for 2 hours at 25 °C, the solutions were filtered and analysed by means of HPLC,DAD (Agilent 1200 Rapid Resolution HPLC with a diode array detector). Best fit calibration curves were constructed using the calibration standards, which were used to determine the aqueous samples’ solubility.13
4.2) Microsomal stability
The metabolic stability assay was performed in duplicate in a 96,well micro titre plate. The test compounds (0.1 µM) were incubated individually in mouse, rat and pooled human liver […]
the cofactor NADPH (1 mM). Reactions were quenched by adding 300 µL of ice cold acetonitrile containing internal standard (carbamazepine, 0.0236 µg/mL). Test compounds in the supernatant were analysed by means of LC,MS/MS (Agilent Rapid Resolution HPLC, AB SCIEX 4000 QTRAP MS) for the disappearance of parent compound. Metabolite searches were not conducted during the metabolic stability assay.14
4.3) Plasma protein binding (PPB) assay
The plasma protein binding assay was performed in a 96,well micro titre plate with pooled human plasma, spiked with test compound (5 µM). An aliquot was immediately removed and quenched using ice cold acetonitrile containing internal standard (carbamazepine, 0.0236 µg/mL), and placed in the freezer. This served as the total concentration sample. After pre,incubation (37 °C for 1 hour) duplicate aliquots of the spiked plasma were transferred to ultra,centrifugation tubes, […]

[2] = tested on: Mycobacterium tuberculosis (H37RvMa); test: microbe, parasite or virus in culture; format: cell-based; conditions: for MIC99 7H9/ADC / fold more potent in 7H9/ADC compared to 1: 7H9/ADC medium; for MIC99 GAST/Fe / fold more potent in GAST/Fe compared to 1: GAST/Fe medium; for fold more potent in 7H9/ADC compared to 1 / fold more potent in GAST/Fe compared to 1: versus compound 1; for MIC: Mycobacterium tuberculosis, medium not stated
[3] = tested on: PiniB-LUX reporter (Mtb cell wall biosynthesis); format: cell-based; conditions: luminescence over 7 days, INH control
[4] = Caseum binding using surrogate caseum
[5] = tested on: PrecA-LUX reporter (genotoxic compounds); format: cell-based; conditions: luminescence over 7 days, CIPRO control
[6] = in vivo; conditions: male, C57/BL6, mouse
[7] = format: in vitro ADME
Protocol: and ultracentrifuged for 4 hours (42000 rpm, 37 °C, Beckman Optima L,80XP). Analyte concentration of all compounds and sample types were determined by means of LC,MS/MS (Agilent Rapid Resolution HPLC, AB SCIEX 4000 QTRAP MS).
4.4) Lipophilicity (LogD7.4)
The lipophilicity assay was performed in triplicate using a shake,flask procedure. 10 mM stock solutions of each test compound were used to spike (100 µM) a 1:1 mixture of phosphate buffer (pH 7.4) and n,octanol. The solutions were shaken vigorously (1500 rpm) on an orbital shaker for 3 hours at room temperature. Thereafter the samples were centrifuged in order to fully separate the two immiscible fluids. The samples were analysed by HPLC,DAD (Agilent 1200 Rapid Resolution HPLC with a diode array detector) and the amount of compound in the buffer and n, octanol were used to determine the partition coefficient, LogD7.4.15
4.5) Parallel Artificial Membrane Permeability Assay (PAMPA):
The PAMPA assay was performed in triplicate in 96,well MultiScreen Filter plates (Millipore, 0.4 µM PCTE Membrane). Membrane filters were pre,coated with 5% hexadecane in hexane and allowed to dry prior to the assay. Membrane integrity marker, Lucifer yellow was added to the apical wells of the pre,coated MultiScreen plate donor/drug solutions containing test compound.
Phosphate buffer (pH7.4) was added to the 96,well acceptor plate. 10 mM test compound was used to spike (1 µM) the donor buffer at physiologically relevant pH's (pH 4, 6.5 and 8), the donor plate slotted into the acceptor plate and incubated (4 hours at room temperature) with gentle shaking (40,50 rpm). Following the incubation, sample from the acceptor wells and theoretical equilibrium wells were transferred to the analysis plate and matrix matched with blank donor buffer. Acetonitrile containing internal standard (carbamazepine, 0.0236 µg/mL) was added to all samples and they were analysed by LC,MS/MS (Agilent Rapid Resolution HPLC, AB SCIEX 4500 MS). The normalised (analyte/internal) peak areas were used to calculate the apparent permeability (Papp). Membrane integrity was assessed by calculating the Papp of Lucifer Yellow […]
chemosensitivity. […]. Thus only viable cells […]
formazan. Formazan crystals are dissolved in DMSO. The test samples were tested in triplicate on […]
experiment. […] Emetine was used […]
as the reference drug in all experiments. The initial concentration of emetine was 100 µg/mL, […]
lowest being 0.001 µg/mL. […] The […]
the cell viability (data not shown).
GraphPad Prism v.4 software. […]
expressing the full length hERG channel. Single cell ionic currents were measured in the […]

[8] = tested on: Mtb::gfp strain (H37RvMa::pMSP12GFP); format: cell-based; conditions: supplementary csv; for MIC99 7H9/ADC (values marked c: GFP strain based assay): 7H9/ADC medium; for MIC99 GAST/Fe (values marked c: GFP strain based assay): GAST/Fe medium
[9] = target: T1, BCG_3193 (Rv3169) (Mycobacterium bovis BCG, UniProt A0A1R3Y3B6); test: biochemical; set-up: species or system Mycobacterium bovis BCG extract; conditions: bead competition in BCG extract
[10] = tested on: BCG_3827 (Rv3768); format: binding, Mycobacterium bovis BCG
[11] = target: T1, BCG_3193 (Rv3169); test: biochemical; format: binding
[12] = tested on: Mycobacterium tuberculosis (H37RvMa); test: microbe, parasite or virus in culture; set-up: MIC99 by standard broth microdilution against M. tuberculosis H37Rv; conditions: read-out: MIC99 7H9/ADC (æM)

T1 sequence (A0A1R3Y3B6 1-374): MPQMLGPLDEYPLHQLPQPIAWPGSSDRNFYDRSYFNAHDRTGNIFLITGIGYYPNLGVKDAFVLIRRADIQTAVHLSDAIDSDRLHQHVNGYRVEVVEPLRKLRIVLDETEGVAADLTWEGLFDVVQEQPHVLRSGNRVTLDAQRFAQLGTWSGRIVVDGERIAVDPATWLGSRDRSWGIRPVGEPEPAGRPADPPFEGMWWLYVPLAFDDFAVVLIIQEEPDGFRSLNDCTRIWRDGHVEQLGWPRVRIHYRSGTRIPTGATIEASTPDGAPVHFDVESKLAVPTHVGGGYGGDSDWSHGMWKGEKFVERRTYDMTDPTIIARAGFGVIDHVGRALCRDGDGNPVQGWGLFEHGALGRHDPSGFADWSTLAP

6-((4-Cyanobenzyl)(methyl)amino)-N-phenylpyrimidine-4-carboxamide [Compound 16]
solubility kinetic at 2 h ([1]; pH 7.4): <5 µM | Solubility ([1]; supplementary csv): <5 æM | MIC99 7H9/ADC [2]: >50 µM | MIC99 7H9/ADC ([2]; supplementary csv): >50 æM | MIC99 GAST/Fe [2]: 20 µM | MIC99 GAST/Fe ([2]; supplementary csv): 20 æM

6-(Benzyloxy)-N-phenylpyrimidine-4-carboxamide [Compound 4]
MIC99 7H9/ADC [2]: >160 µM | MIC99 7H9/ADC ([2]; supplementary csv): >160 æM

CN(Cc1ccc(F)cc1)c1cc(C(=O)Nc2ccccc2)ncn1 [Compound 10, 6-((4-Fluorobenzyl)(methyl)amino)-N-phenylpyrimidine-4-carboxamide]
fold more potent in 7H9/ADC compared to 1 [2]: ≥ 4 fold | fold more potent in GAST/Fe compared to 1 [2]: ≥ 2 fold

CN(Cc1ccc(Cl)cc1)c1cc(C(=O)Nc2ccccc2)ncn1 [Compound 11, 6-((4-Chlorobenzyl)(methyl)amino)-N-phenylpyrimidine-4-carboxamide]
fold more potent in 7H9/ADC compared to 1 [2]: ≥ 4 fold | fold more potent in GAST/Fe compared to 1 [2]: ≥ 2 fold

CN(Cc1ccc(C(F)(F)F)cc1)c1cc(C(=O)Nc2ccccc2)ncn1 [Compound 12, 6-(Methyl(4-(trifluoromethyl)benzyl)amino)-N-phenylpyrimidine-4-carboxamide]
PiniB-LUX reporter response [3]: a weak, delayed response | caseum distribution unbound [4]: 0.1% | PrecA-LUX reporter response [5]: delayed (Day 3 onwards) induction of luminescence | AUC(0-inf) at 24 h ([6]; iv, 5 mg/kg): 20.4 µM·h | clearance at 24 h ([6]; iv, 5 mg/kg): 11.3 mL/min/kg | half-life at 24 h ([6]; iv, 5 mg/kg): 276 min | AUC(0-inf) at 24 h ([6]; po, 20 mg/kg): 22.2 µM·h | half-life at 24 h ([6]; po, 20 mg/kg): 522 min | PAMPA log Papp [7]: –4.9

COc1ccc(NC(=O)c2cc(N(C)Cc3cccc(F)c3)ncn2)cc1 [Compound 13, 6-((3-Fluorobenzyl)(methyl)amino)-N-(4-methoxyphenyl)pyrimidine-4-carboxamide]
PiniB-LUX reporter response [3]: a weak, delayed response | PrecA-LUX reporter response [5]: delayed (Day 3 onwards) induction of luminescence

CN(Cc1ccc(S(C)(=O)=O)cc1)c1cc(C(=O)Nc2ccccc2)ncn1 [Compound 17, 6-(Methyl(4-(methylsulfonyl)benzyl)amino)-N-phenylpyrimidine-4-carboxamide]
MIC99 7H9/ADC (values marked c: GFP strain based assay) [8]: >125c æM | MIC99 GAST/Fe (values marked c: GFP strain based assay) [8]: >125c æM

CN(Cc1cccnc1)c1cc(C(=O)Nc2ccccc2)ncn1 [Compound 19, 6-(Methyl(pyridin-3-ylmethyl)amino)-N-phenylpyrimidine-4-carboxamide]
MIC99 7H9/ADC (values marked c: GFP strain based assay) [8]: 48c æM | MIC99 GAST/Fe (values marked c: GFP strain based assay) [8]: 37c æM

CN(Cc1ccc(C(F)(F)F)nc1)c1cc(C(=O)Nc2ccccc2)ncn1 [Compound 20, 6-(Methyl((6-(trifluoromethyl)pyridin-3-yl)methyl)amino)-N-phenylpyrimidine-4-carboxamide]
AUC(0-inf) at 24 h ([6]; iv, 5 mg/kg): 19.6 µM·h | clearance at 24 h ([6]; iv, 5 mg/kg): 11.2 mL/min/kg | AUC(0-inf) at 24 h ([6]; po, 20 mg/kg): 33.3 µM·h | PAMPA log Papp [7]: –3.8

CN(Cc1ccc(C(F)(F)F)cc1)c1cc(C(=O)NC2CCCCC2)ncn1 [Compound 34, N-Cyclohexyl-6-(methyl(4-(trifluoromethyl)benzyl)amino)pyrimidine-4-carboxamide]
MIC99 7H9/ADC (values marked c: GFP strain based assay) [8]: >125c æM | MIC99 GAST/Fe (values marked c: GFP strain based assay) [8]: 12c æM

CN1CCN(c2ccc(NC(=O)c3cc(N(C)Cc4ccc(C(F)(F)F)cc4)ncn3)cc2)CC1 [Compound 40, 6-(Methyl(4-(trifluoromethyl)benzyl)amino)-N-(4-(4-methylpiperazin-1-yl)phenyl)pyrimidine-4-carboxamide]
IC50 ([9]; IC50, Experiment ID=X028553): 1700 nM | IC50 ([9]; IC50, Experiment ID=X028554): 1500 nM | IC50 [10]: 10 µM | binding of BCG_3827 to the compound beads in presence of free compound [10]: reduced binding | Kd ([10]; read-out: apparent dissociation constant Kd^app for BCG_3827): 2100 nM and 3800 nM | caseum distribution unbound [4]: 0.1% | Hill [11]: 1.62 | binding of BCG_3193 to the compound beads in presence of free compound [11]: reduced binding | IC50 ([11]; IC50): 1100 nM | Kd ([11]; apparent dissociation constant Kd^app for BCG_3193): 610 nM and 690 nM | IC50 ([11]; pIC50): 1100 nM | AUC(0-inf) at 24 h ([6]; iv, 5 mg/kg): 9 µM·h | half-life at 24 h ([6]; iv, 5 mg/kg): 618 min | AUC(0-inf) at 24 h ([6]; po, 20 mg/kg): 9.4 µM·h | half-life at 24 h ([6]; po, 20 mg/kg): 948 min | PAMPA log Papp [7]: –4.5

CN1CCN(c2cccc(NC(=O)c3cc(N(C)Cc4ccc(F)cc4)ncn3)c2)CC1 [Compound 42, 6-((4-Fluorobenzyl)(methyl)amino)-N-(3-(4-methylpiperazin-1-yl)phenyl)pyrimidine-4-carboxamide]
MIC values dropping by fold ([2]; 3-position versus 4-position N-methylpiperazine): 10- to 30 fold

CN(Cc1ccc(F)cc1)c1cc(C(=O)Nc2ccc(N3CCOCC3)cc2)ncn1 [Compound 45, 6-((4-Fluorobenzyl)(methyl)amino)-N-(4-morpholinophenyl)pyrimidine-4-carboxamide]
MIC [2]: < 5 µM

CN(Cc1ccc(C(F)(F)F)nc1)c1cc(C(=O)Nc2ccc(N3CCOCC3)cn2)ncn1 [Compound 46, 6-(Methyl((6-(trifluoromethyl)pyridin-3-yl)methyl)amino)-N-(5-morpholinopyridin-2-yl)pyrimidine-4-carboxamide]
MIC [2]: 2 to 3 µM (≈ 0.947 to 1.42 µg/mL)

CN(Cc1ccc(F)cc1)c1cc(C(=O)Nc2nncs2)ncn1 [Compound 51, 6-((4-Fluorobenzyl)(methyl)amino)-N-(1,3,4-thiadiazol-2-yl)pyrimidine-4-carboxamide]
solubility kinetic at 2 h ([1]; pH 7.4, pH 7.4): > 100 µM | caseum distribution unbound [4]: 0.5% | AUC(0-inf) at 24 h ([6]; iv, 5 mg/kg): 22.1 µM·h | clearance at 24 h ([6]; iv, 5 mg/kg): 11.1 mL/min/kg | half-life at 24 h ([6]; iv, 5 mg/kg): 306 min | AUC(0-inf) at 24 h ([6]; po, 20 mg/kg): 17 µM·h | half-life at 24 h ([6]; po, 20 mg/kg): 264 min

O=C(Nc1ccccc1)c1cc(OCC2CCCCC2)ncn1 [compound 4]
MIC99 [12]: > 160 µM
